Measured values published in patent US20220370381A1 (priority 2016, published 2022).

Key:
serotonin 5-HT1A = molecular target: T1, serotonin 5-HT1A (Rattus norvegicus, UniProt P19327); test: Competitive radioligand binding assay, serotonin 5-HT1A
T1 construct: serotonin 5-HT1A (rat cerebral cortex); from tissue; host or cells: rat cerebral cortex
T1 sequence (P19327 1-422): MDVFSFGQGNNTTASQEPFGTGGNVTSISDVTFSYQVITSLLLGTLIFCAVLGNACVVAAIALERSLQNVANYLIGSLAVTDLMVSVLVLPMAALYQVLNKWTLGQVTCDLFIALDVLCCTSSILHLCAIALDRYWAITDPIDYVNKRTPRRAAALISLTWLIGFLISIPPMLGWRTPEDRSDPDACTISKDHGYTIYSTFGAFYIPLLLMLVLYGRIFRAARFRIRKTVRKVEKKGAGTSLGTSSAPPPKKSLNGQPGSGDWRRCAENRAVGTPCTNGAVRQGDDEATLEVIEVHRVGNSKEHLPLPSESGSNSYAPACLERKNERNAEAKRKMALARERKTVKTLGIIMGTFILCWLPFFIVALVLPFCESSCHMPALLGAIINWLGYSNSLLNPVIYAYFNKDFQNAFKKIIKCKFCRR

Swiss OF-1 mice = test: Step-through passive avoidance, dizocilpine-induced deficit; format: in vivo, mouse
[1] = molecular target: human β-2 adrenergic receptor (Homo sapiens, UniProt P07550); test: Competitive radioligand binding assay, β2-adrenergic; settings: test article 1×10^−6 and 1×10^−5 mol/L; human recombinant
Na channel = tested on: T2, Na channel; test: Competitive radioligand binding assay, Na channel; parameters: species or system Rat; settings: test article 1×10^−6 and 1×10^−5 mol/L; rat brain
T2 construct: other: test article 1×10^−6 and 1×10^−5 mol/L; rat brain

Sigma 1 = Sigma 1 (Cavia porcellus, UniProt Q60492); test: Sigma-1 receptor tissue bioassay, guinea pig vas deferens, agonist activity (twitch contraction); parameters: Segments of guinea pig vas deferens were suspended in 20-ml organ baths; from tissue; host or cells: guinea pig vas deferens; settings: field-stimulated guinea pig vas deferens, compound alone
Sigma 1, sequence (Q60492 whole entry): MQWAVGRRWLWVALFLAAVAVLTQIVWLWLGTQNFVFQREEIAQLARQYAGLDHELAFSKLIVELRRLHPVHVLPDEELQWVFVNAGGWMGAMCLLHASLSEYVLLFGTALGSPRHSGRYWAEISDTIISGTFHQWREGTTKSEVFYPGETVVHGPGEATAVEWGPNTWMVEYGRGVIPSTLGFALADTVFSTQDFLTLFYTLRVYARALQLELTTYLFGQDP

human β-2 adrenergic receptor, sequence (P07550 whole entry): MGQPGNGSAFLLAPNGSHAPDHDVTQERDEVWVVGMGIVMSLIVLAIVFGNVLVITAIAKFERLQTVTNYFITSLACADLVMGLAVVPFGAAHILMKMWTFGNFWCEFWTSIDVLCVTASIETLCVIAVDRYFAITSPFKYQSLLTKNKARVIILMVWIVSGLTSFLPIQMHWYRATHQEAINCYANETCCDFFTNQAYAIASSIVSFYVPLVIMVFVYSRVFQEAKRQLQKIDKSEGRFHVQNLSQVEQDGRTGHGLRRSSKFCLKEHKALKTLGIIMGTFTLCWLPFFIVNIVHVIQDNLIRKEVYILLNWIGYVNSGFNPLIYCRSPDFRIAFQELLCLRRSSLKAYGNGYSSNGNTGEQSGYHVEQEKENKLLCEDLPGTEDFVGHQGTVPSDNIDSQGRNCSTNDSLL

## CCNC(C)Cc1cccc(C(F)(F)F)c1 (racemic) [fenfluramine, (RS)—N-ethyl-1-[3-(trifluoromethyl)phenyl]propan-2-amine]
Serotonin 5-HT1A
  IC50: 0.573 µM
  Ki: 0.327 µM
Serotonin 5-HT1A; test article 1×10^−6 and 1×10^−5 mol/L, rat cerebral cortex
  inhibition of receptor binding (tracer): significantly inhibit
Swiss OF-1 mice; IP, 0.1 mg/kg not active
  dose attenuating dizocilpine-induced deficit in passive avoidance response (minimal active dose): 0.3 mg/kg
Swiss OF-1 mice; dizocilpine […], most active doses 0.3 and 1 mg/kg IP
  dizocilpine-induced deficit of passive avoidance learning: significantly attenuated
[1]
  inhibition of receptor binding (tracer): significantly inhibit
Na channel
  inhibition of receptor binding (tracer): significantly inhibit
Sigma 1
  effect on twitch contraction amplitude: did not significantly affect
